Data as given in publication PMC12406253, “Exploration of the Neuromodulatory Properties of Fyn and GSK-3β Kinases Exploiting 7‑Azaindole-Based Inhibitors” (Journal of Medicinal Chemistry, 2025).

Tests used:
[1] = BBB permeability in hCMEC/D3 transwell model; conditions: human
Experimental: (§2) To this aim, the immortalized human brain endothelial cell line (hCMEC/D3) was used since it mimics the brain endothelium-restricted permeability and expresses most of the transporters and receptors present in vivo, constituting a valuable in vitro model of the human BBB crossing system.
(§3) BBB permeability assay was conducted as described in Albertini et al. The brain microvascular endothelial cells (hCMEC/D3) were seeded at the density of 5 × 10^4 cells per cm^2 in the upper compartment of Transwell filters (polyester, pore size 0.4 μm, 12-well tissue culture transwell; Corning), precoated with rat tail collagen type I (0.1 mg/mL; Roche). They were grown for 7 days up to confluence in Endothelial Cell Growth Medium 2 (Promocell), supplemented with penicillin/streptomycin 100 U/mL, in a humidified, 5% CO2 incubator at 37 °C. Confluent monolayers were washed in prewarmed HBSS buffer, and the selected compounds were added to the apical (AP) side at a concentration of 100 μM. […] Samples (100 μL) were collected from the BL side at different time points (15, 30, 60, and 90 min) and then replaced with the corresponding volume of HBSS buffer. […] The concentration of compounds was determined using a Ultimate 3000 HPLC system (ThermoFisher) with UV–vis detection at the maximum absorption wavelength of each compound except for inulin as determined by a spectrophotometric method using a Tecan Sunrise absorbance microplate reader. […] The permeability coefficient (Papp) was calculated as follows: Papp = (ΔQ/Δt)/(C [donor] × A), where ΔQ/Δt represents the permeation rate (mol/s), C [donor] is the initial compound concentration in the donor compartment at time 0 (mol/cm^3), and A represents the surface area of the filter (1.12 cm^2).

[2] = test system: immortalized human brain endothelial cell line (hCMEC/D3); test: BBB permeability in hCMEC/D3 transwell model; conditions: 100 μM apical; ± SE
Experimental: as §2, §3

FYNα = FYNα (Homo sapiens, UniProt P06241); test: FYNα kinase assay, LANCE Ultra TR-FRET; type: biochemical
Chain of FYNα (P06241 whole entry): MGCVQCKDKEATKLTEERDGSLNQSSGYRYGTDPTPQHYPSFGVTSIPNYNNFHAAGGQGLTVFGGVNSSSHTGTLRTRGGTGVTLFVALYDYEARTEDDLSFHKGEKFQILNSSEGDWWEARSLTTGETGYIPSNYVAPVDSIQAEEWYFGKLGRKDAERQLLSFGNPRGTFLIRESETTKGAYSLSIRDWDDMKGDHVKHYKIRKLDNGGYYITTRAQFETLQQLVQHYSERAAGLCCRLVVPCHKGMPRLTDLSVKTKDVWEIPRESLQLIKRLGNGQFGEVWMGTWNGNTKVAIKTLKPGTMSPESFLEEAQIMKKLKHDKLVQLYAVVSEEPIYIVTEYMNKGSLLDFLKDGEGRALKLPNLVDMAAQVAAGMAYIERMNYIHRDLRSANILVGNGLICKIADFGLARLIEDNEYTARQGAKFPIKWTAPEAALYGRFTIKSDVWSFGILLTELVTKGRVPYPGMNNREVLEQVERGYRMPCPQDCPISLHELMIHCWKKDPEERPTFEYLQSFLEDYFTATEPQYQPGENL
Experimental: (§1) GSK-3β and FYNα kinase assays were run in 384-well microplates (OptiPlate-384, White, PerkinElmer) in a total reaction volume of 20 μL. The inhibitory potency against human recombinant GSK-3β and FYNα (Carna Biosciences) was evaluated using the LANCE Ultra (PerkinElmer) time-resolved fluorescence resonance energy transfer (TR-FRET) by measuring the phosphorylation of the ULight-labeled substrate, according to the manufacturer’s instructions. The synthetic peptide surrounding Ser641 of human muscle glycogen synthase (ULight-GS (Ser641/pSer657)) and the synthetic 28-amino acid peptide containing eight Tyr residues placed in different amino acid contexts (ULightTM-TK (PT66)) were selected as specific substrates for GSK-3β and FYNα, respectively. Briefly, test compounds and staurosporine (reference compound) or DMSO (control) are mixed with the enzyme (GSK-3β: 2 nM and FYNα: 1 nM) in a buffer containing 50 mM HEPES (pH 7.5), 1 mM EGTA, 10 mM MgCl2, 2 mM DTT, and 0.01% Tween-20. […] Following incubation, the reaction is stopped by adding 6 mM EDTA. After 5 min, the antiphospho antibody labeled with europium chelate is added. After 1 more hour, the kinase reaction is monitored by irradiation at 320 nm and the fluorescence measured at 615 and 665 nm, using EnVision 2014 Multilabel Reader (PerkinElmer). The calculated signal ratio at 665/615 nm is proportional to the extent of ULight-substrate phosphorylation. The compounds were tested at 11 different concentrations ranging from 3 nM up to 100 μM in triplicate. […] The results were expressed as a percent inhibition of the control enzyme activity.
Dose–response curves were run in at least three independent experiments, performed in three technical replicates. IC50 values (concentrations causing half-maximal enzyme inhibition) were determined by nonlinear regression analysis of the Log[concentration]/response curves generated with mean replicate values using a four parameter Hill equation curve fitting with GraphPad Prism 8 (GraphPad Software Inc., CA-USA).

[3] = test system: primary rat cerebellar granule neurons (CGNs); test: Neurotoxicity, cell viability in CGNs (MTT); type: cell-based; conditions: 5, 10, and 25 μM, 24 h
Experimental: A preliminary cell viability assessment was conducted in primary rat cerebellar granule neurons (CGNs), which are considered a reliable model for studying cellular and molecular mechanisms of survival/apoptosis and neurodegeneration/neuroprotection.
Primary cerebellar granule cells were dissociated from cerebella and plated on 96-well plates, previously coated with 10 μg/mL poly-L-lysine, at a density of 1.2 × 10^5 cells/0.2 mL medium/well in BME supplemented with 10% heat-inactivated FBS (Life Technologies), 2 mmol/L glutamine, 100 μmol/L gentamicin sulfate, and 25 mM KCl (all from Sigma-Aldrich). Sixteen hours later, 10 μM cytosine arabinofuranoside (Sigma-Aldrich) was added to avoid glial proliferation. After 7 days in vitro, differentiated neurons were shifted to serum-free BME medium and exposed to increasing concentrations (5 μM, 10 μM, 25 μM) of compounds of interest for 24 h. Then, cell viability was evaluated through the MTT assay.

[4] = test system: primary rat cerebellar granule neurons (CGNs); test: Neuroprotection in CGNs, serum/potassium deprivation (MTT); type: cell-based; conditions: 5, 10, and 25 μM, 48 h
Description: First, we evaluated the neuroprotective properties of the selected compounds in the same cell line, once the expression of Fyn and GSK-3β in this cellular model was verified (Figure S2), after a serum/potassium deprivation experiment, which simulates physiological aging (and mortality), triggering around 20% of cell death. In particular, 7 days differentiated CGNs were exposed to serum-free BME medium with low extracellular concentration of K^+ ions and treated at selected doses (i.e., 5, 10, and 25 μM) of compounds for 48 h. Neuronal viability was then determined with an MTT assay.
To evaluate the neuroprotective effect of our compounds, we tested increasing concentrations (5 μM, 10 μM, 25 μM) of compounds of interest in differentiated CGNs switched to serum-free BME medium with 5 mM KCl (serum-potassium deprivation) for 48 h to mimic in vitro the naturally occurring death of granule cells. Neuroprotection was evaluated through MTT assay.
For MTT assay, thiazolyl blue was added to the culture medium at a final concentration of 0.1 mg/mL. Following a 20 min incubation at 37 °C in the dark, the MTT precipitate was dissolved in 0.1 M Tris–HCl pH 7.5 buffer containing 5% Triton X-100 (all from Sigma-Aldrich) and absorbance was read at 570 nm in a microplate spectrophotometric reader (Bio-Rad).

[5] = test system: neurospheres (NPCs from the subventricular zone); test: Neurosphere growth analysis (NPC proliferation); type: cell-based, mice; conditions: 0.1, 1, and 5 μM; 7 days
Experimental: Based on that, we further investigated the neurogenic and differentiation potential of our kinase inhibitors in cell culture of neurospheres, which are floating pools of NPCs coming from the subventricular zone (SVZ) of six-month-old mice. Particularly, we first analyzed the variation, during 7 days, in number and size of neurosphere population with and without treatment.
To investigate the effect of compounds of interest in neurospheres’ growth rate, single spheres were plated in suspension in 96-well plates (5 × 10^3 cells/well) in the presence of compounds (0.1 μM, 1 μM, and 5 μM) in complete DMEM F-12 culture medium. One image/well was acquired every day by using the Sartorius Incucyte Live-Cell Analysis System and evaluated through the Brightfield Spheroid Analysis Software Module. Only aggregates with areas larger than 400 μm^2 were considered for statistical analysis.

[6] = test system: neurospheres (NPCs from the subventricular zone); test: Neurosphere differentiation, immunofluorescence of DCX, GFAP, OLIG2; type: cell-based, mice; conditions: 1 μM; 7 days
Description: Lastly, we move forward to evaluate the neuromodulatory profile of selected compounds that involves the capability to polarize the spontaneous differentiation of neurospheres, which potentially can maturate in neurons or macroglia, such as astrocytes and oligodendrocytes. Modulating NPC differentiation is especially relevant under neurodegenerative conditions as it could offer an intriguing opportunity to achieve polyhedric therapeutic effects. Importantly, neuronal differentiation may help to counteract the progressive neuronal loss, while promoting oligodendrocyte phenotype could support remyelination and neuronal function and the astrocytic polarization may aid to foster a neuroprotective profile. Particularly, after 7 days of treatment at 1 μM, in the same experimental conditions previously reported, cells were fixed and stained with different antibody markers such as doublecortin (DCX) for the immature neurons, glial fibrillary acidic protein (GFAP) for astrocytes, and oligodendrocyte transcription factor 2 (OLIG2) for oligodendrocyte precursors for immunofluorescence analysis (Figure a). […] By driving the maturation of astrocytes, compounds 41 and 43 could exert neuroprotection through multiple mechanisms, including the secretion of neurotrophic factors, enhancement of antioxidant defenses, regulation of water balance, ion homeostasis, and glutamate buffering and recycling. Furthermore, astrocytes support the integrity of the blood–brain barrier (BBB) and aid in the refinement of neural networks via synaptic pruning, further reinforcing their role in preserving brain function and structure.
NSCs were initially obtained by SVZ microdissection of 6 months-old C57BL/6N wild-type male mice (Mus musculus) and routinely cultured in suspension in DMEM-F12 (Gibco; ThermoFisher Scientific, Waltham, MA, USA) supplemented with 2 mM glutamine, 10 μg/mL insulin from bovine pancreas (Sigma-Aldrich; St Louis, MO, USA), 20 ng/mL epidermal growth factor (EGF; PeproTech EC, London, UK), 20 ng/mL fibroblast growth factor-2 (FGF2; PeproTech), 1% N2 (ThermoFisher Scientific), 1% B27 (ThermoFisher Scientific), 10 units/mL penicillin, and 10 μg streptomycin.
To assess the effect of compounds of interest in NSCs differentiation, 30 spheres were plated on 13 mm glass coverslips, previously coated with Matrigel matrix (Corning; New York, USA), in complete DMEM F-12 medium, and treated with 1 μM of compounds of interest. After 7DIV, neurospheres were fixed for 20 min with 4% PFA in PBS 0.1% pH 7.4. Fixed neurospheres were permeabilized in 0.1% Triton/PBS and nonspecific sites were blocked for 1 h with 0.1% Triton/PBS and 5% normal goat serum (Sigma-Aldrich; St Louis, MO, USA). Cells were then incubated overnight at 4 °C with the following primary antibodies: Anti-Doublecortin DCX (Abcam, Cambridge, UK), GFAP (Dakopatts), OLIG2 (Santa Cruz Biotechnology), 1:500 dilution in 0.1% Triton/PBS with 2% normal goat serum. After 3 washes in 0.1% Triton/PBS, specific secondary antibodies were added for 2 h at RT in the dark: Donkey anti-Mouse IgG Alexafluor 555 (Abcam, Cambridge, UK), Goat anti-Rabbit IgG Alexafluor 555 (Abcam, Cambridge, UK), 1:1000 dilution in 0.1% Triton/PBS with 2% normal goat serum. Following 3 washes in 0.1% Triton/PBS, nuclei were stained with DAPI (2 μg/mL, Sigma-Aldrich) for 5 min. Glass coverslips were mounted by using Ultracruz Aqueous Mounting Medium with DAPI (Santa Cruz Biotechnology). Neurospheres confocal images were obtained with a Nikon EZ-C1 microscope (60× objective) and the z-stack function (1024 steps and 1 μm thickness layers; 40 total stacks). 3D image reconstruction was performed by using Fiji ImageJ2 software, z-project plugin, and selecting the sum stacks’ function. Fluorescence intensity index was estimated as the ratio of markers’ positive cells intensity/total cells fluorescence intensity stained with DAPI per ROI.

[7] = test system: immortalized murine microglia N9; test: Immunomodulation in LPS-treated N9 microglia, Western blot of iNOS and TREM2; conditions: 2.5 and 5 μM; 100 ng/mL LPS, 24 h
Experimental: To gain a conclusive answer on the potential role of these kinase inhibitors in counteracting neuroinflammatory processes, after the verified induced astrocytic polarization, the ability of selected compounds to modulate inflammatory response was analyzed by favoring the immunomodulatory switch from neurotoxic M1 phenotype of microglia to phagocytic and neuroprotective M2 phenotype, evaluating inducible nitric oxide synthase (iNOS) and TREM2 as M1 and M2 markers (Figure ).
The microglial phenotype was evaluated through Western blot analysis of the pro-inflammatory iNOS and anti-inflammatory-TREM2 markers.

human recombinant GSK-3β = human recombinant GSK-3β (Homo sapiens, UniProt P49841); test: GSK-3β kinase assay, LANCE Ultra TR-FRET; type: biochemical; conditions: mean ± SD of at least three independent determinations; ATP near Km
Chain of human recombinant GSK-3β (P49841 whole entry): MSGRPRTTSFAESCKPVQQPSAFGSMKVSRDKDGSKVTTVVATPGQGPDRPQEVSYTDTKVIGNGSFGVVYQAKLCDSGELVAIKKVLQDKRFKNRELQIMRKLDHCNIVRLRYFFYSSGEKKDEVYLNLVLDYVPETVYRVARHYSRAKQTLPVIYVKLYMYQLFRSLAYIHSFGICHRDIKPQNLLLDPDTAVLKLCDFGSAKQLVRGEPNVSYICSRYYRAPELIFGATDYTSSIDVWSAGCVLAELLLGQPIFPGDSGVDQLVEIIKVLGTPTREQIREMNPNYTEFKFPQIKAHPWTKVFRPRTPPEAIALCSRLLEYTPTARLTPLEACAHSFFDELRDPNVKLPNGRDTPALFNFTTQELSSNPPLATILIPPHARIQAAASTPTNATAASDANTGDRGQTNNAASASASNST
Experimental: as §1, with “manufacturer's” for “manufacturer’s”, “The synthetic peptide surrounding Ser641 of human muscle glycogen synthase (ULight-GS (Ser641/pSer657)) and the synthetic 28-amino acid peptide containing eight Tyr residues placed in different amino acid contexts (ULightTM-TK (PT66)) were selected as specific substrates for GSK-3β and FYNα, respectively.” left out, “activity. Dose-response curves were run in at least three independent experiments, performed in three technical replicates. IC50 values (concentrations causing half-maximal enzyme inhibition) were determined by nonlinear regression analysis of the Log[concentration]/response curves generated with mean replicate values using a four parameter Hill equation curve fitting with GraphPad Prism 8 (GraphPad Software Inc., CA-USA).” for “activity.”

| Molecule | Papp A→B at 90 min, 100 μM [1] [×10⁻⁶ cm/s] | Neurotoxicity on CGNs (cell viability compared to control) [3] | Neuroprotection on CGNs (cell viability after serum/potassium deprivation) [4] | Neurosphere number (object count per image), neurogenesis [5] | Differentiation toward oligodendrocytes (OLIG2) [6] | TREM2 expression (M2 marker) vs LPS [7] | other results |
| --- | --- | --- | --- | --- | --- | --- | --- |
| Cc1cc(=O)n(-c2ccccc2)n1C [Antypirine, antipyrine, reference compound] | 28 ± 0.53 |  |  |  |  |  |  |
| inulin [reference compound] |  |  |  |  |  |  | Permeability coefficient Papp [2]: 6.74± 1.7 10-6 cm/s |
| Br.Clc1cc(CNc2nc(-c3c[nH]c4ncccc34)cs2)ccn1 [Compound 28, N-((2-Chloropyridin-4-yl)methyl)-4-(1H-pyrrolo[2,3-b]pyridin-3-yl)thiazol-2-amine Hydrobromide] | 12.4 ± 1.13 | not neurotoxic | mitigate the physiological senescence and mortality rate | pronounced neurogenesis | this effect was mitigated | no significant variations | IC50 (FYNα; mean ± SD of at least three independent determinations, ATP near Km, read-out: Fyn IC50): 710 ± 90 nM; Increase in registered cell viability in comparison to control [3]: amplified; Neurosphere dimension (brightfield object total area), maturation [5]: noticeable maturation at days 6 and 7; iNOS expression (M1 marker) vs LPS [7]: notably decreased the M1 marker at both tested concentrations |
| Br.CN(Cc1ccccc1)c1nc(-c2c[nH]c3ncccc23)cs1 [Compound 33, N-Benzyl-N-methyl-4-(1H-pyrrolo[2,3-b]pyridin-3-yl)thiazol-2-amine Hydrobromide] |  |  | almost equipotent to inactive compounds |  |  |  | IC50 (human recombinant GSK-3β): 2450 ± 540 nM; Fyn % Inhibition @ 50 μM (FYNα; 50 μM, mean ± SD, n.i. = no inhibition): n.i. |
| c1ccc(CNc2nnc(-c3c[nH]c4ncccc34)s2)cc1 [Compound 40, N-Benzyl-5-(1H-pyrrolo[2,3-b]pyridin-3-yl)-1,3,4-thiadiazol-2-amine] |  | not neurotoxic | almost equipotent to inactive compounds | pronounced neurogenesis | inactive regarding oligodendrocytes | no significant variations | Differentiation toward astrocytes (GFAP) [6]: negatively affected astrocytic differentiation; Differentiation toward neurons (DCX) [6]: mild increment |
